Results published in US20240398783A1, “Compounds and Pharmaceutical Compositions Comprising Inhibitors of Amyloid Peptide Interactions with Glycosaminoglycans, Methods of Treatment and Use Thereof” (Gismo Therapeutics, Inc., priority 2021, published 2024).
Structures can show the parent of a compound that is named as a salt. Where two headings read alike, the source gives them in different places.

Experiments:
[1] = molecular target: Tau binding to purified human brain membranes (Homo sapiens, UniProt P10636); assay: Inhibition of Tau binding to purified human brain cell membranes (ELISA)
Protocol: (§1) Purified human brain cell membranes were prepared by differential centrifugation as follows. Five grams of frozen human brain postmortem tissue (obtained from University of Kentucky Alzheimer's Disease Center Tissue Bank) was homogenized in 50 ml HEPES-Buffered sucrose (0.32M sucrose, 4 mM HEPES pH7.4, protease inhibitors) with a motor driven glass-teflon homogenizer. After removing nuclear and cell debris by centrifugation of homogenates at 1,000×g for 10 min at 4 degree Celsius, post-nuclear supernatant was centrifuged at 100,000×g for 30 minutes to yield the crude membrane pellet. Crude membrane pellet was re-suspended in 0.32M sucrose, then centrifuged again at 100,000×g for 30 minutes to yield washed membrane pellet. Membrane pellet was resuspended in sterile PBS (pH7.4), quickly frozen, and kept in aliquots at −80 degrees Celsius. This preparation contains human brain cell membranes. Protein concentration was measured with BCA protein assay kit (Pierce Cat. No. 23227). Purified brain membranes were diluted to 0.01 mg/ml in PBS (pH 7.4) and then added to a 96 well polystyrene ELISA plate (NUNC Cat. No. 449824; 100 μl per well). Plates were incubated Over Night (ON) at 4 degrees Celsius. Following the incubation, the plate was washed consecutively, by immersion, with de-ionized water and PBS (pH 7.4). The ELISA plate was then blocked with nonfat milk (2%, 200 μl per well) for 2 hours at Room Temperature (RT). Following blocking, the plate was washed with de-ionized water then PBS (pH 7.4). GBAPs were dissolved and diluted in PBS (pH 6.5, supplemented with 0.1% BSA) at desired concentrations, added to the ELISA plates coated with brain membranes (100 μl per well) and incubated for 2 hours at RT with gentle shaking. Following incubation, the plate was washed with de-ionized water and three times with PBS (pH 6.5) plus Tween. Bound GBAP was detected by a monoclonal antibody specific for that GBAP, followed by incubation with secondary antibody conjugated to horseradish peroxidase (HRP). Antibody was diluted in PBS (pH6.5 supplemented with 1% BSA). Following each incubation with antibody, the plate was washed with de-ionized water and three times with PBS (pH6.5) wash buffer containing 0.1% Tween. The peroxidase substrate chromogen, TMB (Dako Cat. No. S1599) was added (100 μl per well) to the ELISA plate and incubated at room temperature. After 5 minutes ELISA Stop Solution (hydrochloric acid 1N, sulfuric acid 3N) was added (100 μl per well) to stop the peroxidase catalyzed colorimetric reaction. The Optical Density of the samples was measured at 450 nm using an ELISA plate reader (BioTek Synergy H1). Following color development, the % inhibition compared to control was determined. IC-50s were calculated using GraphPad Prism software.
The assay was performed as described in Example 49, with the following modifications.
Following to coating the plates with purified human brain cell membranes, plates were washed as described. The compounds were dissolved in DMSO at 10 mM final concentration and further diluted prior to assay. DMSO concentration in the screening well was up to 2%. Individual compounds were co-incubated with Tau on plates coated with purified human brain membranes. Tau purchased from rPeptide (Cat. No. T1001) was dissolved in DMSO (Sigma Cat. No. D2650), quickly frozen and kept in aliquots at −80 degrees Celsius. Tau dissolved in PBS (pH 6.5, supplemented with BSA, 0.1%) was added to the ELISA plate (100 μl per well) and incubated for 2 hours at RT with gentle shaking. Following the incubation, the plate was washed with de-ionized water and three times with PBS (pH 6.5) plus Tween. Bound Tau was detected by anti-Tau Monoclonal Antibody D-8 (Santa Cruz Cat. No. sc-166060), followed by secondary anti-IgG antibody conjugated to HRP (R&D System, Cat. No. HAF007). Following to color development with TMB, as described in Example 49, the Optical Density of the samples was measured at 450 nm using an ELISA plate reader. […]

[2] = molecular target: T1, Amyloid-beta(1-42) oligomer binding to purified human brain membranes (Homo sapiens, UniProt P05067); assay: Inhibition of Amyloid-beta(1-42) oligomer binding to purified human brain cell membranes (ELISA); settings: Abeta(1-42) oligomers, read-out: Abeta42/Membrane Activity (IC-50)
T1 construct: Beta-amyloid (1-42) was purchased from rPeptide (Cat. No. A1163); purchased rPeptide A1163
Protocol: as §1
(§2) The assay was performed as described in Example 49, with the following modifications. Following to coating the plates with purified human brain cell membranes, plates were washed as described. The compounds were dissolved in DMSO at 10 mM final concentration and further diluted prior to assay. DMSO concentration in the screening well was up to 2%. Individual compounds were co-incubated with Beta-amyloid peptides on plates coated with purified human brain membranes. Beta-amyloid (1-42) oligomers were prepared as described in Example 2. Beta-amyloid (1-40) from rPeptide (Cat No. A1153) was dissolved in DMSO, quickly frozen and kept in aliquots at −80 degrees Celsius. Beta-amyloid (1-42) oligomers or Beta-amyloid (1-40) dissolved in PBS (pH 6.5, supplemented with BSA, 0.1%) were added to the ELISA plate (100 μl per well) and incubated for 2 hours at RT with gentle shaking. Following the incubation, the plate was washed with de-ionized water and three times with PBS (pH 6.5) plus Tween. […]

[3] = molecular target: T2, Amyloid-beta(1-40) binding to purified human brain membranes (Homo sapiens, UniProt P05067); assay: Inhibition of Amyloid-beta(1-40) binding to purified human brain cell membranes (ELISA); settings: Abeta(1-40), read-out: Abeta40/Membrane Activity (IC-50)
T2 construct: Beta-amyloid (1-40) from rPeptide (Cat No. A1153) was dissolved in DMSO; purchased rPeptide A1153
Protocol: as §1, §2

[4] = Tau, purified human brain membranes, read-out: Tau/Membrane Activity (IC-50)

T2 sequence (P05067 672-711): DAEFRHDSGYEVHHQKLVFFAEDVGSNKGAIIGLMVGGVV
T1 sequence (P05067 672-713): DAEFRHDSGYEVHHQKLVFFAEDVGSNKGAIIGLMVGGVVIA
Tau binding to purified human brain membranes, sequence (P10636 with tags, fused parts or gaps): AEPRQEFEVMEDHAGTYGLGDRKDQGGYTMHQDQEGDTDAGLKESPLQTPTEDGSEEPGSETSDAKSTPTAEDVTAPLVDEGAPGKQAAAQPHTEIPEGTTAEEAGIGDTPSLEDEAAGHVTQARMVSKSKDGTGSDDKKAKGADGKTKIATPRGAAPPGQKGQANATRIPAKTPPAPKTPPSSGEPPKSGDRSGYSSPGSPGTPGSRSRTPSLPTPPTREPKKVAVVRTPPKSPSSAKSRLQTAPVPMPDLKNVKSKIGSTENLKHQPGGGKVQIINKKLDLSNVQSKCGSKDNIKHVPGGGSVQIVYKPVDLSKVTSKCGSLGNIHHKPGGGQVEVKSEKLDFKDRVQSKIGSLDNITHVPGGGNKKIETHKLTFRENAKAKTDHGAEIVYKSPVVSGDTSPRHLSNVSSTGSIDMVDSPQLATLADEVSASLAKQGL

Row | SMILES | IC50 [2] | IC50 [3] | other results
1 | Cc1cc(-n2ccnc2)ccc1/C=N/Nc1ccnc2cc(Cl)ccc12 [Compound 1, (E)-4-((E)-(4-(1H-imidazol-1-yl)-2-methylbenzylidene)hydrazono)-7-chloro-1,4-dihydroquinoline] | 2.97 µM |  | IC50 [1, 4]: 0.49 µM
2 | Cc1ncn(-c2ccc(/C=N/Nc3ccnc4cc(Cl)ccc34)cc2)c1C [Compound 2, (E)-7-chloro-4-((E)-(4-(4,5-dimethyl-1H-imidazol-1-yl)benzylidene)hydrazono)-1,4-dihydroquinoline] |  |  | IC50 [1]: 11.4 µM
3 | Fc1ccc2c(N/N=C/c3ccc(-n4ccnc4)cc3)ccnc2c1 [Compound 5, (E)-4-(2-(4-(1H-imidazol-1-yl)benzylidene)hydrazinyl)-7-fluoroquinoline] |  |  | IC50 [1]: 0.84 µM
4 | Fc1ccc2c(N/N=C/c3ccc(CN4CCOCC4)cc3)ccnc2c1 [Compound 6, (E)-4-(4-((2-(7-fluoroquinolin-4-yl)hydrazono)methyl)benzyl)morpholine] |  |  | IC50 [1]: 0.63 µM
5 | CN1CCN(Cc2ccc(/C=N/Nc3ccnc4cc(Cl)ccc34)cc2)CC1 [Compound 7, (E)-7-chloro-4-(2-(4-((4-methylpiperazin-1-yl)methyl)benzylidene)hydrazinyl)quinolone] |  |  | IC50 [1]: 1.22 µM
6 | COc1cc2nccc(NN=Cc3ccc(-n4ccnc4)c(C)c3)c2cc1OC [Compound 11, 4-(2-(4-(1H-imidazol-1-yl)-3-methylbenzylidene)hydrazineyl)-6,7-dimethoxyquinoline hydrochloride] |  |  | IC50 [1]: 8.31 µM
7 | COc1ccc2c(NN=Cc3ccc(-n4ccnc4)c(C)c3)ccnc2c1 [Compound 12, 4-(2-(4-(1H-imidazol-1-yl)-3-methylbenzylidene)hydrazineyl)-7-methoxyquinoline] |  |  | IC50 [1]: 29.9 µM
8 | Cc1ncn(-c2ccc(/C=N\Nc3ncnc4cc(Cl)ccc34)cn2)c1C [Compound 15, 7-chloro-4-(2-((6-(4,5-dimethyl-1H-imidazol-1-yl)pyridin-3-yl)methylene)hydrazineyl)quinazoline hydrochloride] | 7.05 µM |  | 
9 | C/C(=N\Nc1ncnc2cc(Cl)ccc12)c1ccc(-n2cc[n+](C)c2)nc1 [Compound 17, (E)-1-(5-(1-(2-(7-chloroquinazolin-4-yl)hydrazineylidene)ethyl)pyridin-2-yl)-3-methyl-1H-imidazol-3-ium iodide phosphoric acid salt] |  | 27.9 µM | 
10 | C/C(=N\Nc1ncnc2cc(Cl)ccc12)c1ccc(-n2cc(C)nc2C)nc1 [Compound 18, (E)-7-chloro-4-(2-(1-(6-(2,4-dimethyl-1H-imidazol-1-yl)pyridin-3-yl)ethylidene)hydrazineyl)quinazoline phosphoric acid salt] |  | 17.3 µM | 
11 | C/C(=N\Nc1ncnc2ccccc12)c1ccc(-n2cc(C)nc2C)nc1 [Compound 19, (E)-4-(2-(1-(6-(2,4-dimethyl-1H-imidazol-1-yl)pyridin-3-yl)ethylidene)hydrazineyl)quinazoline] |  | 3.09 µM | 
12 | C/C(=N\Nc1ncnc2cc(F)ccc12)c1ccc(-n2cnc(C)c2C)nc1 [Compound 21, (E)-4-(2-(1-(6-(4,5-dimethyl-1H-imidazol-1-yl)pyridin-3-yl)ethylidene)hydrazineyl)-7-fluoroquinazoline] | 3.3 µM | 5.95 µM | 
13 | CC(=NNc1ccnc2cc(Cl)ccc12)c1ccc(-n2cnc(C)c2C)nc1 [Compound 22, 7-chloro-4-(2-(1-(6-(4,5-dimethyl-1H-imidazol-1-yl)pyridin-3-yl)ethylidene)hydrazineyl)quinoline] | 3.56 µM | 1.78 µM | 
14 | Cc1ncn(-c2ccc(Nc3ncnc4cc(Cl)ccc34)cn2)c1C [Compound 25, 7-chloro-N-(6-(4,5-dimethyl-1H-imidazol-1-yl)pyridin-3-yl)quinazolin-4-amine] | 7.01 µM | 4.68 µM | 
15 | C/C(=N\Nc1ncnc2cc(F)ccc12)c1ccc(-n2cc[n+](C)c2)nc1 [Compound 26, (E)-1-(5-(1-(2-(7-fluoroquinazolin-4-yl)hydrazineylidene)ethyl)pyridin-2-yl)-3-methyl-1H-imidazol-3-ium phosphoric acid salt] |  | 1.51 µM | 
16 | C/C(=N\Nc1ncnc2cc(Cl)ccc12)c1ccc(-n2cc(C)nc2C)nc1 [Compound 27, (E)-7-chloro-4-(2-(1-(6-(2,4-dimethyl-1H-imidazol-1-yl)pyridin-3-yl)ethylidene)hydrazineyl)quinazoline hydrochloride] | 3.97 µM | 2.23 µM | 
17 | CC(=NNc1ncnc2cc(Cl)ccc12)c1ccnc(-n2cnc(C)c2C)c1 [Compound 28, 7-chloro-4-(2-(1-(2-(4,5-dimethyl-1H-imidazol-1-yl)pyridin-4-yl)ethylidene)hydrazineyl)quinazoline] |  | 3.71 µM | 
18 | Clc1ccc2c(Nc3ccc(-n4cncn4)nc3)ncnc2c1 [Compound 34, N-(6-(1H-1,2,4-triazol-1-yl)pyridin-3-yl)-7-chloroquinazolin-4-amine phosphoric acid salt] | 10.4 µM |  | 
19 | Fc1cc(/C=N/Nc2ccnc3cc(Cl)ccc23)ccc1-n1ccnc1 [Compound 35, (E)-7-chloro-4-(2-(3-fluoro-4-(1H-imidazol-1-yl)benzylidene)hydrazineyl)quinoline hydrochloride] | 10.4 µM | 41.5 µM | 
20 | CC(=NNc1ccnc2cc(Cl)ccc12)c1ccc(-n2ccnc2)cc1 [Compound 36, 4-(2-(1-(4-(1H-imidazol-1-yl)phenyl)ethylidene)hydrazineyl)-7-chloroquinoline phosphate] | 18.7 µM |  | 
21 | CCN1CCN(c2ccc(Nc3ccnc4cc5ccccc5cc34)cc2)CC1 [Compound 39, N-(4-(4-ethylpiperazin-1-yl)phenyl)benzo[g]quinolin-4-amine] |  | 1.46 µM | IC50 [1]: 54.1 µM
22 | Clc1ccc2c(Nc3ccc(-n4ccnc4)nc3)ncnc2c1 [Compound 41, N-(6-(1H-imidazol-1-yl)pyridin-3-yl)-7-chloroquinazolin-4-amine] |  | 18.7 µM | IC50 [1, 4]: 5.58 µM
23 | CCN(CC)Cc1cccc(Nc2ccnc3cc(Cl)ccc23)c1 [Compound 42, 7-chloro-N-(3-((diethylamino)methyl)phenyl)quinolin-4-amine] |  | 6.56 µM | 
24 | Clc1ccc2c(Nc3ccc(-n4cncn4)nc3)ccnc2c1 [Compound 44, N-(6-(1H-1,2,4-triazol-1-yl)pyridin-3-yl)-7-chloroquinolin-4-amine] |  | 43 µM | 
